This experiment deals with T1, Chemerin-like receptor 2 (Homo sapiens, UniProt P46091).
T1 sequence (P46091 whole entry): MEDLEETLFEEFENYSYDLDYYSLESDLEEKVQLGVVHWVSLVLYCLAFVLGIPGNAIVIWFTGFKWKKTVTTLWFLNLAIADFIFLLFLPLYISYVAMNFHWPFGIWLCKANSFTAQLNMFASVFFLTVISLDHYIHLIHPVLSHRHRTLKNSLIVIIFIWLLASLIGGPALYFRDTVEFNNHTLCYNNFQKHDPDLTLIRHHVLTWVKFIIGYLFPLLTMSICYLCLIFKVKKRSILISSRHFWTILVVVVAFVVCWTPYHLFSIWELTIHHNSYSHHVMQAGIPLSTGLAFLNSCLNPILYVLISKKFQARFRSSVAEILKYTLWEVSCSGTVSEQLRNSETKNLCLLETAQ
The experiment is described as follows: Agonist activity at recombinant human GPR1 expressed in CHOK1 PathHunter cells assessed as beta-arrestin 2 recruitment incubated for 90 mins by luminescence assay. The class given is cell-based.

The text below walks through data of ChEMBL document CHEMBL4418295, “Method for identifying modulators of GPCR GPR1 function” (2014).

Turning to `CC[C@H](C)[C@H](NC(=O)[C@H](CCC(=O)O)NC(=O)[C@@H](CO)NC(=O)[C@@H](NC(=O)[C@H](CC(C)C)NC(=O)[C@H](CC(C)C)NC(=O)[C@H](CC(C)C)NC(=O)[C@H](CC(C)C)NC(=O)[C@H](CS)NC(=O)[C@H](CO)NC(=O)[C@H](Cc1ccccc1)NC(=O)CNC(=O)[C@H](CCCNC(=N)N)NC(=O)[C@@H]1CCCN1C(=O)[C@H](C)NC(=O)[C@@H](N)CCSC)[C@@H](C)O)C(=O)N[C@@H](CC(=O)O)C(=O)N[C@@H](CC(C)C)C(=O)N1CCC[C@H]1C(=O)N[C@H](C(=O)N[C@@H](CCCCN)C(=O)N[C@@H](CCCNC(=N)N)C(=O)N[C@@H](CCCNC(=N)N)C(=O)N[C@@H](C)C(=O)O)C(C)C`, the EC50 (in general, the concentration at which the effect is half-maximal) worked out at 92.8 nM.
